Reference: patent publication US5482957A, “Azole derivatives, process for their preparation and their use” (Hoechst Aktiengesellschaft, priority 1991, dated 1996)

These compounds were tested against angiotensin II receptor (assay: Displacement of 125I- or 3H-angiotensin II from receptor preparations from various organs (liver, lung, adrenal gland, brain etc.)). Details: Table 1; radioligand displacement, 25° C., 90 min, pH 7.4.
Type: binding
Description: Alternatively, the affinity of the compounds of the formula I for the angiotensin II receptor can be determined by measurement of the ^125 I-angiotensin II or ^3 H-angiotensin II displacement of receptor preparations from various organs (liver, lung, adrenal gland, brain etc.).
To this end, the prepared membranes are suspended in an incubation buffer ([…], pH 7.4, containing 135 mM NaCl, 10 mM KCl, 10 mM MgCl2, 5 mM glucose, 0.2% bovine serum albumin and the protease inhibitors PMSF, 0.3 mM, and bacitracin, 0.1 mM) and incubated at 25° C. for 90 min together with the radioactively labeled angiotensin II and various concentrations of the compounds to be tested. Bound and free radioligand are then separated by filtration through micro glass fiber filters (GF51, Schleicher and Schull) in a cell collector (SKATRON).
The degree of displacement of the radioligand from the receptor by the test compounds is determined by measurement of the receptor-bound radioactivity on the filters by means of a beta- or gamma-spectrometer. The amount of the displacement of the radioligand from the receptor by the test compounds is indicated by the IC50, i.e. the concentration of the inhibitor which displaces 50% of the bound radioligand from the receptor. The calculation of the IC50 values is carried out by means of PC software (LIGAND, G. A. McPherson 1985, Elsevier BIOSOFT, 68 Hills Road, Cambridge, CB2 1LA, UK.).

SMILES	IC50
CCCCc1nc(OC)c(C=O)n1Cc1ccc(-c2ccccc2S(=O)(=O)NC(=O)OCc2ccccc2)cc1 [Example 186, 1-{[(2'-Benzyloxycarbonylaminosulfonyl)biphenyl-4-]methyl}-2-n-butyl-4-methoxyimidazole-5-carbaldehyde]	6.5 nM
CCCCc1nc(SC)c(C(=O)O)n1Cc1ccc(-c2ccccc2S(=O)(=O)NC(=O)N[C@@H](Cc2ccccc2)C(=O)O)cc1 [Example 98]	1.4 nM
CCCCc1nc(SC)c(C(=O)OCC)n1Cc1ccc(-c2ccccc2S(=O)(=O)NC(=O)OCC=Cc2ccccc2)cc1 [Example 161]	57 nM
CCCCc1nc(SC)c(C(=O)O)n1Cc1ccc(-c2ccccc2S(=O)(=O)NC(=O)OCc2cccs2)cc1 [Example 164]	0.86 nM
CCCCc1nc(SC)c(C(=O)O)n1Cc1ccc(-c2ccccc2S(=O)(=O)NC(=O)NCc2ccncc2)cc1 [Example 115]	0.9 nM
C=CCCCOC(=O)NS(=O)(=O)c1ccccc1-c1ccc(Cn2c(CCCC)nc(SC)c2C(=O)O)cc1 [Example 167]	4 nM
CCCCc1nc(SC)c(C(=O)O)n1Cc1ccc(-c2ccccc2S(=O)(=O)NC(=O)OCCOC(C)C)cc1 [Example 157]	1.4 nM
C=CCNC(=O)NS(=O)(=O)c1ccccc1-c1ccc(Cn2c(CCCC)nc(SC)c2C(=O)O)cc1 [Example 56, 1-[(2'-allylaminocarbonylaminosulfonylbiphenyl-4-yl)methyl]-2-n-butyl-4-methylthioimidazole-5-carboxylic acid]	4.6 nM
CCCCc1nc(SC)c(C(=O)O)n1Cc1ccc(-c2ccccc2S(=O)(=O)NC(=O)NCc2ccccn2)cc1 [Example 113]	0.3 nM
CCCCc1nc(SC)c(C(=O)O)n1Cc1ccc(-c2ccccc2S(=O)(=O)NC(=O)Nc2ccccc2)cc1 [Example 102]	2.3 nM
CCCCc1nc(SC)c(C(=O)OCC)n1Cc1ccc(-c2ccccc2S(=O)(=O)NC(=O)N2CCCC2)cc1 [Example 141]	4.4 nM
CCCCc1nc(SC)c(C(=O)OCC)n1Cc1ccc(-c2ccccc2S(=O)(=O)NC(=O)NCCCc2ccccc2)cc1 [Example 76]	9.5 nM
CCCCc1nc(Cl)c(C=O)n1Cc1ccc(-c2ccccc2S(=O)(=O)NC(=O)Nc2nc(C)cs2)cc1 [Example 32]	3.5 nM
CCCCc1nc(SC)c(C(=O)O)n1Cc1ccc(-c2ccccc2S(=O)(=O)NC(=O)N[C@H](CO)Cc2ccccc2)cc1 [Example 129]	1.5 nM
CCCCc1nc(Cl)c(C=O)n1Cc1ccc(-c2ccccc2S(=O)(=O)NC(=O)NCCN2CCCCC2)cc1 [Example 30]	2030 nM
CCCCc1nc(SC)c(C(=O)OCC)n1Cc1ccc(-c2ccccc2S(=O)(=O)NC(=O)NCc2cccc(OC)c2)cc1 [Example 85]	3.9 nM
CCCCc1nc(OC)c(C=O)n1Cc1ccc(-c2ccccc2S(=O)(=O)NC(=O)OCC)cc1 [Example 185, 1-{[(2'-Ethoxycarbonylaminosulfonyl)biphenyl-4-yl]-methyl}-2-n-butyl-4-methoxyimidazole-5-carbaldehyde]	5.9 nM
CCCCc1nc(SC)c(C(=O)OCC)n1Cc1ccc(-c2ccccc2S(=O)(=O)NC(=O)N2CCC(NC(=O)OC(C)(C)C)CC2)cc1 [Example 146]	40 nM
CCCCc1nc(SC)c(C(=O)O)n1Cc1ccc(-c2ccccc2S(=O)(=O)NC(=O)NCCN2CCOCC2)cc1 [Example 107]	2.5 nM
C=C[C@H](Cc1ccccc1)NC(=O)NS(=O)(=O)c1ccccc1-c1ccc(Cn2c(CCCC)nc(SC)c2C(=O)O)cc1 [Example 127]	3 nM
CCCCc1nc(SC)c(C(=O)O)n1Cc1ccc(-c2ccccc2S(=O)(=O)NC(=O)NCCc2cccc(C(F)(F)F)c2)cc1 [Example 79]	5.8 nM
CCCCc1nc(SC)c(C(=O)O)n1Cc1ccc(-c2ccccc2S(=O)(=O)NC(=O)NCCCN2CCCC2=O)cc1 [Example 116]	2.4 nM
CCCCc1nc(SC)c(C(=O)OCC)n1Cc1ccc(-c2ccccc2S(=O)(=O)NC(=O)N[C@H](CO)Cc2ccccc2)cc1 [Example 128]	5.6 nM
CCCCc1nc(SC)c(C(=O)O)n1Cc1ccc(-c2ccccc2S(=O)(=O)NC(=O)NC2CCCCC2)cc1 [Example 59]	1.3 nM

SMILES	IC50
CCCCc1nc(SC)c(C(=O)O)n1Cc1ccc(-c2ccccc2S(=O)(=O)NC(=O)Nc2ccc(F)cc2)cc1 [Example 101]	2.4 nM
CCCCc1nc(SC)c(C(=O)OCC)n1Cc1ccc(-c2ccccc2S(=O)(=O)NC(=O)N[C@H](C(=O)OC)C(C)CC)cc1 (stereo partly drawn) [Example 68]	12 nM
CCCCc1nc(SC)c(C(=O)OCC)n1Cc1ccc(-c2ccccc2S(=O)(=O)NC(=O)NCC2CC2)cc1 [Example 110]	0.5 nM
CCCCc1ncc(C(=O)OCC)n1Cc1ccc(-c2ccccc2S(=O)(=O)NC(=O)NCc2ccccc2)cc1 [Example 187, Ethyl 1-{[(2'-benzylaminocarbonylaminosulfonyl)biphenyl-4-yl]methyl}-2-n-butylimidazole-5-carboxylate]	1.2 nM
CCCCc1nc(SC)c(C(=O)O)n1Cc1ccc(-c2ccccc2S(=O)(=O)NC(=O)OCCc2ccccc2)cc1 [Example 152]	1.5 nM
CCCCc1nc(SC)c(C(=O)OCC)n1Cc1ccc(-c2ccccc2S(=O)(=O)NC(=O)NCc2ccccc2OC)cc1 [Example 84]	4.3 nM
CCCCc1nc(SC)c(C(=O)O)n1Cc1ccc(-c2ccccc2S(=O)(=O)NC(=O)OCC2CC2)cc1 [Example 155]	6 nM
CCCCc1nc(SC)c(C(=O)OCC)n1Cc1ccc(-c2ccccc2S(=O)(=O)NC(=O)N2CCOCC2)cc1 [Example 140]	8.2 nM
CC#CCOC(=O)NS(=O)(=O)c1ccccc1-c1ccc(Cn2c(CCCC)nc(SC)c2C(=O)O)cc1 [Example 169]	2.9 nM
CCCCc1nc(SC)c(C(=O)OCC)n1Cc1ccc(-c2ccccc2S(=O)(=O)NC(=O)NC(C)c2ccccc2)cc1 (stereo not drawn) [Example 95]	1.8 nM
CCCCc1nc(SC)c(C(=O)O)n1Cc1ccc(-c2ccccc2S(=O)(=O)NC(=O)NCCc2ccccc2)cc1 [Example 67]	0.91 nM
CCCCc1nc(SC)c(C(=O)OCC)n1Cc1ccc(-c2ccccc2S(=O)(=O)NC(=O)Nc2ccc(F)cc2)cc1 [Example 100]	68.5 nM
CCCCc1nc(Cl)c(C=O)n1Cc1ccc(-c2ccccc2S(=O)(=O)NC(=O)Nc2ccccc2F)cc1 [Example 24]	800 nM
CCCCc1nc(SC)c(C(=O)O)n1Cc1ccc(-c2ccccc2S(=O)(=O)NC(=O)OCCOCc2ccccc2)cc1 [Example 172]	0.48 nM
CCCCc1nc(SC)c(C(=O)O)n1Cc1ccc(-c2ccccc2S(=O)(=O)NC(=O)N[C@H](CO)c2ccccc2)cc1 [Example 124]	1.8 nM
CCCCc1nc(Cl)c(C=O)n1Cc1ccc(-c2ccccc2S(=O)(=O)NC(=O)NCCc2ccccn2)cc1 [Example 29]	1.1 nM
CCCCc1nc(Cl)c(C=O)n1Cc1ccc(-c2cccc(S(=O)(=O)NC(=O)Nc3nnn[nH]3)c2)cc1 [Example 5]	16000 nM
C=CCN(CC=C)C(=O)NS(=O)(=O)c1ccccc1-c1ccc(Cn2c(CCCC)nc(SC)c2C(=O)O)cc1 [Example 61]	1.1 nM
CCCCc1nc(SC)c(C(=O)OCC)n1Cc1ccc(-c2ccccc2S(=O)(=O)NC(=O)Nc2ccccc2)cc1 [Example 99]	26.6 nM
CCCCc1nc(SC)c(C(=O)OCC)n1Cc1ccc(-c2ccccc2S(=O)(=O)NS(=O)(=O)c2cccs2)cc1 [Example 194]	21.7 nM
C=C(C)COC(=O)NS(=O)(=O)c1ccccc1-c1ccc(Cn2c(CCCC)nc(SC)c2C(=O)O)cc1 [Example 166]	1.2 nM
CCCCc1nc(SC)c(C(=O)O)n1Cc1ccc(-c2ccccc2S(=O)(=O)NC(=O)NCCCN2CCCCC2C)cc1 (stereo not drawn) [Example 111]	2.9 nM
CCCCc1nc(SC)c(C(=O)OCC)n1Cc1ccc(-c2ccccc2S(=O)(=O)NC(=O)NCC(=O)OC)cc1 [Example 71]	2.2 nM
CCCCc1nc(SC)c(C(=O)O)n1Cc1ccc(-c2ccccc2S(=O)(=O)NC(=O)NCc2cccnc2)cc1 [Example 112]	1.5 nM
